Values quoted from earlier work in patent publication US20040253299A1, “Transdermal therapeutic system (reservoir-tts) for using pramipexole and ropinirole” (priority 2001, published 2004).

Conditions: administered orally

Structure (SMILES)	bioavailability
CCCN(CCC)CCc1cccc2c1CC(=O)N2 [Ropinirole, 4-(2-di-n-propylaminoethyl)-2-(3H)-indolone]	50%
CCCNC1CCc2nc(N)sc2C1 (centres unmarked) [pramipexole, 2-amino-6-n-propylamino-4,5,6,7-tetrahydrobenzothiazole]	90%
